For twelve molecules, IC50, inhibition and Activity results are on record in ChEMBL document CHEMBL1667848, “Synthesis and evaluation of trehalose-based compounds as anti-invasive agents” (Bioorg Med Chem Lett, 2011).

≈ marks a conversion by molar mass, not a printed value.

The nature of data set [1]: Antiinvasive activity against mouse 26-L5 cells by transwell migration assay. The class given is functional, cell-based.
Data set [2] can be described thus: Antiinvasive activity against mouse 26-L5 cells at 1 ug/ml by transwell migration assay. Format: functional.
A short description of data set [3]: Cytotoxicity against mouse 26-L5 cells upto 10 ug/ml. The class given is cell-based.

One may read the IC50 as the midpoint of a concentration-inhibition curve. A word on the inhibition: it is the drop in the measured response relative to a control, in per cent. With `O=C(OC[C@H]1O[C@H](O[C@H]2O[C@H](COC(=O)c3cccc(O)c3O)[C@@H](O)[C@H](O)[C@H]2O)[C@H](O)[C@@H](O)[C@@H]1O)c1cccc(O)c1O`, in data set [1] (Mus musculus, read-out: IC50), the IC50 was less than 1 µg/mL. For the same molecule, 1 µg/mL produced 40% inhibition in data set [2]. For the same molecule, in data set [3], the Activity result is listed as “Non-toxic”.
On to `Cc1cc(O)cc(O)c1C(=O)OC[C@H]1O[C@H](O[C@H]2O[C@H](COC(=O)c3c(C)cc(O)cc3O)[C@@H](O)[C@H](O)[C@H]2O)[C@H](O)[C@@H](O)[C@@H]1O` [BRARTEMICIN], for which, in data set [1] (Mus musculus, read-out: IC50), the IC50 stood at 0.25 µg/mL (≈ 0.389 µM). In data set [3], the Activity entry is given as “Non-toxic”.
As for `Cc1ccccc1C(=O)OC[C@H]1O[C@H](O[C@H]2O[C@H](COC(=O)c3ccccc3C)[C@@H](O)[C@H](O)[C@H]2O)[C@H](O)[C@@H](O)[C@@H]1O`, in data set [1], the half-maximal inhibitory concentration (IC50) entry was “Not Active”. Further, the Activity result in data set [3] is “Non-toxic”.
As to `O=C(OC[C@H]1O[C@H](O[C@H]2O[C@H](COC(=O)c3ccccc3O)[C@@H](O)[C@H](O)[C@H]2O)[C@H](O)[C@@H](O)[C@@H]1O)c1ccccc1O`, in data set [1] (Mus musculus, read-out: IC50), the half-inhibitory concentration (IC50) was less than 1 µg/mL. In data set [2], testing at 1 µg/mL gave an inhibition of 35%. Further, the Activity result in data set [3] is “Non-toxic”.
As for `O=C(OC[C@H]1O[C@H](O[C@H]2O[C@H](COC(=O)c3c(F)cccc3F)[C@@H](O)[C@H](O)[C@H]2O)[C@H](O)[C@@H](O)[C@@H]1O)c1c(F)cccc1F`, the IC50 in data set [1] (Mus musculus, read-out: IC50) worked out at 1 µg/mL (≈ 1.61 µM). Besides, the Activity entry in data set [3] is “Non-toxic”.
In the same order, the values of `O=C(OC[C@H]1O[C@H](O[C@H]2O[C@H](COC(=O)c3ccc(O)cc3)[C@@H](O)[C@H](O)[C@H]2O)[C@H](O)[C@@H](O)[C@@H]1O)c1ccc(O)cc1` are 1 µg/mL (≈ 1.72 µM) and “Non-toxic”.
In the case of `CCNc1cccc(C)c1C(=O)OC[C@H]1O[C@H](O[C@H]2O[C@H](COC(=O)c3c(C)cccc3NCC)[C@@H](O)[C@H](O)[C@H]2O)[C@H](O)[C@@H](O)[C@@H]1O`, the half-maximal inhibitory concentration (IC50) in data set [1] (Mus musculus, read-out: IC50) amounted to 1 µg/mL (≈ 1.5 µM). Also, in data set [3], the Activity entry is “Non-toxic”.
For the molecule `COc1cc(C(=O)OC[C@H]2O[C@H](O[C@H]3O[C@H](COC(=O)c4ccc(F)c(OC)c4)[C@@H](O)[C@H](O)[C@H]3O)[C@H](O)[C@@H](O)[C@@H]2O)ccc1F`, the IC50 result in data set [1] was “Not Active”. Further, the Activity entry in data set [3] is recorded as “Non-toxic”.
Regarding `COc1ccccc1C(=O)OC[C@H]1O[C@H](O[C@H]2O[C@H](COC(=O)c3ccccc3OC)[C@@H](O)[C@H](O)[C@H]2O)[C@H](O)[C@@H](O)[C@@H]1O`, in data set [1] (Mus musculus, read-out: IC50), the IC50 came out at 1 µg/mL (≈ 1.64 µM). Besides, in data set [3], the Activity entry is listed as “Non-toxic”.
Regarding `COc1ccc(C(=O)OC[C@H]2O[C@H](O[C@H]3O[C@H](COC(=O)c4ccc(OC)cc4)[C@@H](O)[C@H](O)[C@H]3O)[C@H](O)[C@@H](O)[C@@H]2O)cc1`, in data set [1], the concentration for half-maximal inhibition (IC50) result was “Not Active”. Also, the Activity entry in data set [3] is “Non-toxic”.
The like results for `COc1cc(C(=O)OC[C@H]2O[C@H](O[C@H]3O[C@H](COC(=O)c4cc(OC)c(OC)c(OC)c4)[C@@H](O)[C@H](O)[C@H]3O)[C@H](O)[C@@H](O)[C@@H]2O)cc(OC)c1OC` were, in that order, “Not Active” and “Non-toxic”.
Take `COc1cccc(C(=O)OC[C@H]2O[C@H](O[C@H]3O[C@H](COC(=O)c4cccc(OC)c4OC)[C@@H](O)[C@H](O)[C@H]3O)[C@H](O)[C@@H](O)[C@@H]2O)c1OC`: the half-inhibitory concentration (IC50) in data set [1] (Mus musculus, read-out: IC50) was found to be 0.1 µg/mL (≈ 0.149 µM). For the same molecule, in data set [3], the Activity entry is on record as “Non-toxic”.
